Measured values published in the NIST ThermoML archive (doi:10.1021/je034189g).
Numbers after ± are expanded uncertainties.

Settings: Liquid; Ebulliometric method (Recirculating still)

COc1ccccc1 [anisole]
Normal boiling temperature: 153.62 ± 0.15 °C

c1ccccc1 [benzene]
Normal boiling temperature: 80.01 ± 0.15 °C

C1CCCCC1 [cyclohexane]
Normal boiling temperature: 80.63 ± 0.15 °C

CCCCCO [pentan-1-ol]
Normal boiling temperature: 137.63 ± 0.15 °C
